The text below walks through data of patent publication US11827628B2, “Compositions and methods for inhibition of the JAK pathway” (Rigel Pharmaceuticals, Inc., priority 2005, dated 2023).

Counter-ions that a name gives are not always drawn. Like-named read-outs stand apart in the source and are kept apart here.

Assay type in all cases: cell-based
Assay [1] relates to IL-4 stimulated expression of CD23 in human Ramos B cells (JAK-1 and JAK-3). Put plainly: Assay for Ramos B-Cell Line Stimulated with IL-4 (CD23 upregulation, FACS). The following applies: read-out: IC50, Example 41. The method, boiled down: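 Human Ramos B cells in RPMI with 5% serum were pre-incubated with compound or DMSO for 1 h at 37 °C, then stimulated with IL-4 at a final 50 units/mL for 20-24 h. CD23 upregulation was measured by anti-CD23-PE staining and flow cytometry, and IC50 values were calculated.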

The test system of assay [2] is up-regulation of ICAM-1 (CD54) by IFNγ in U937 human monocytic cells. Nature of the assay: U937 IFNγ ICAM1 FACS Assay. The settings on record: ICAM-1 expression by FACS, read-out: IC50, Example 44. The source says: The activity of the compounds of the invention may additionally be characterized by assaying the effect of the 2,4-substituted pyrimidinediamine compounds described herein on A549 lung epithelial cells and U937 cells. A549 lung epithelial cells and U937 cells up-regulate ICAM-1 (CD54) surface expression in response to a variety of different stimuli. Therefore, using ICAM-1 expression as readout, test compound effects on different signaling pathways can be assessed in the same cell type. Stimulation with IL-1β through the IL-1β receptor activates the TRAF6/NFκB pathway resulting in up-regulation of ICAM-1. IFNγ induces ICAM-1 up-regulation through activation of the JAK1/JAK2 pathway. The up-regulation of ICAM-1 can be quantified by flow cytometry across a compound dose curve and EC50, values are calculated.
U937 human monocytic cells up-regulate ICAM-1 (CD54) surface expression in response to a variety of different stimuli. Therefore, using ICAM-1 expression as readout, compound effects on different signaling pathways can be assessed in the same cell type. IFNγ up-regulates ICAM-1 through activation of the JAK/Stat pathway. In this example, the up-regulation of ICAM-1 by IFNγ was assessed.
The U937 human monocytic cell line was obtained from ATCC of Rockville Maryland, catalog number CRL-1593.2, and cultured in RPM1-1640 medium containing 10% (v/v) FCS. U937 cells were grown in 10% RPMI. The cells were then plated at a concentration of 100,000 cells per 160 μL in 96 well flat bottom plates. […] Then 4 μL of test compound was transferred to 76 μL of 10% RPMI resulting in a 10× solution (100 μM test compound, 5% DMSO). For control wells, 4 μL of DMSO was diluted into 76 μL 10% RPMI.
The assay was performed in duplicate with 8 points (8 3-fold dilution concentrations from […]) and with 4 wells of DMSO only (control wells) under stimulated conditions and 4 wells of DMSO only under unstimulated conditions.
The diluted compound plate was mixed 2× using a multimek (Beckman Coulter of Brea, California) and then 20 μL of the diluted compounds was transferred to the 96 well plate containing 160 μL of cells, which were then mixed again twice at low speeds. The cells and compounds were then pre-incubated for 30 minutes at 37° C. with 5% CO2.
The 10× stimulation mix was made by preparing a 100 ng/mL solution of human IFNγ in 10% RPMI. […] The cells were kept under conditions for stimulation for 18-24 hours at 37° C. with 5% CO2.
The cells were transferred to a 96 well round bottom plate for staining and then kept on ice for the duration of the staining procedure. Cells were spun down at 1000 rpm for 5 minutes at 4° C., following which the supernatant was removed. Following removal of the supernatant, 1 μL APC conjugated mouse anti-human ICAM-1 antibody was added per 100 μL FACS buffer. The cells were then incubated on ice in the dark for 30 minutes. Following incubation, […] of FACS buffer was added and the cells were centrifuged at 1000 rpm for 5 minutes at 4° C., following which the supernatant was removed. After removal of the supernatant, 200 μL of FACS buffer was added and the cells were resuspended. After suspension, the cells were centrifuged at 1000 rpm for 5 min at 4° C. Supernatant was then removed prior to resuspension of the cells in 150 μL FACS buffer.
Detection was performed using a BD LSR I System Flow Cytometer, purchased from BD Biosciences of San Jose, California The live cells were gated for live scatter and the geometric mean of ICAM-APC was measured (Becton-Dickinson CellQuest software version 3.3, Franklin Lakes, NJ). Both % live cells and ICAM-1 expression was analyzed. The assays for the test compounds were carried out in parallel with a control compound of known activity.

A further assay has as its system Primary human T-cells. Nature of the assay: Primary Human T-Cell Proliferation Assay Stimulated with IL-2 (CellTiter-Glo). The following applies: primary human T-cells stimulated with IL-2, proliferation; read-out: IC50, Example 42. A digest of the protocol: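 IC50 derived from CellTiter-Glo ATP signal after 72 hours of IL-2-driven proliferation at 37° C. Cells: primary human T-cells from blood, stimulated beforehand 3-4 days on anti-CD3/anti-CD28 with IL-2, then rested from IL-2 before compound exposure in duplicate; IL-2-free wells served as unstimulated control.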
In general terms: In ATP-based viability assays light output follows the ATP content of the culture.

[3] abbreviates: Homo sapiens, Ramos, Ramos B-cell line stimulated with IL-4, CD23 expression by FACS.
Where [4] appears, read: Homo sapiens, U-937, U937 cells stimulated with IFNγ.
[5] abbreviates: Ramos B-cell line stimulated with IL-4, CD23 expression by FACS.
The mark [6] stands for this setting: U937 cells stimulated with IFNγ.
The mark [7] stands for this setting: Ramos B cells stimulated with IL-4, CD23 expression by FACS.

As to `Cc1ccc(Nc2ncc(F)c(Nc3ccc(OCC#N)cc3)n2)cc1S(=O)(=O)NC(=O)C(C)C` [Compound I-39, N4-(4-Cyanomethyleneoxy)phenyl-5-fluoro-N2-(3-isobutyrylaminosulfonyl-4-methyl)phenyl-2,4-pyrimidinediamine sodium Salt], the IC50 came to 841 nM in assay [1] (Ramos B-cell line stimulated with IL-4, CD23 expression by FACS, sodium salt) and 9320 nM in assay [2] (U937 cells stimulated with IFNγ, sodium Salt).
As to `N#CCOc1ccc(Nc2nc(Nc3cccc(S(N)(=O)=O)c3)ncc2F)cc1CO` [Compound I-50, N2-(3-Aminosulfonylphenyl)-N4-(4-cyanomethoxy-3-hydroxymethylphenyl)-5-fluoro-2,4-pyrimidinediamine], the IC50 in assay [1] (setting [3]) came to 373 nM; in assay [2] (setting [4]), 25100 nM.
For `N#CCOc1ccc(Nc2nc(Nc3cccc(S(N)(=O)=O)c3)ncc2F)cc1-c1ccn(CC#N)n1` [Compound I-53, N2-(3-Aminosulfonylphenyl)-N4-[4-cyanomethoxy-3-(1-cyanomethylpyrazol-3-yl)phenyl]-5-fluoro-2,4-pyrimidinediamine] the same measures were 236 nM and 12200 nM.
In the same order, the values of `Cc1ccc(Nc2ncc(F)c(Nc3ccc(OCC#N)c(-c4ccn(CC#N)n4)c3)n2)cc1S(N)(=O)=O` [Compound I-54, N2-(3-Aminosulfonyl-4-methylphenyl]-N4-[4-cyanomethoxy-3-(1-cyanomethylpyrazol-3-yl)phenyl]-5-fluoro-2,4-pyrimidinediamine] are 277 nM and 7160 nM.
As to `CNS(=O)(=O)c1cc(Nc2ncc(F)c(Nc3ccc(OCc4ccccn4)cc3)n2)ccc1C` [Compound I-161, 5-Fluoro-N2-[3-(N-methylaminosulfony)-4-methylphenyl]-5-fluoro-N4-[4-(2-pyridinyl)methyleneoxyphenyl]-2,4-pyrimidinediamine], the half-inhibitory concentration (IC50) in assay [1] (setting [5]) is 314 nM; in assay [2] (setting [6]) it was 2410 nM.
For `CNS(=O)(=O)c1cc(Nc2ncc(F)c(Nc3ccc(OCc4cc(C)on4)c(C)c3)n2)ccc1C` [Compound I-239, 5-Fluoro-N2-[3-N-(methyl)aminosulfonyl-4-methylphenyl]-N4-[3-methyl-4-(5-methylisoxazol-3-yl)methyleneoxyphenyl]-2,4-pyrimidinediamine] the same measures were 240 nM and 7060 nM.
On to `Cc1cc(COc2ccc(Nc3nc(Nc4cccc(S(=O)(=O)N(Cc5oc(=O)oc5C(C)(C)C)Cc5oc(=O)oc5C(C)(C)C)c4)ncc3F)cc2)no1` [Compound I-249, N2-{3-[N-N-Di-[(5-t-Butyl-1,3-dioxolene-2-one-4-yl)methylene]]aminosulfonylphenyl}-5-fluoro-N4-[4-(5-methylisoxazol-3-yl)methyleneoxyphenyl]-2,4-pyrimidinediamine], for which the half-maximal inhibitory concentration (IC50) in assay [1] (setting [5]) worked out at 512 nM; in assay [2] (setting [6]), 11000 nM.
In the same order, the values of `CCC(=O)NS(=O)(=O)c1cccc(Nc2ncc(F)c(Nc3ccc(OCc4nc(C)no4)cc3)n2)c1` [Compound I-264] are 599 nM and 15000 nM.
On to `Cc1ccc(Nc2ncc(F)c(Nc3ccc4c(c3)N(Cc3ccccn3)C(=O)CO4)n2)cc1S(N)(=O)=O` [Compound V-3, N2-(3-Aminosulphonyl-4-methylphenyl)-5-fluoro-N4-[3-oxo-4-(2-pyridylmethy)-benz[1,4]oxazin-6-yl]-2,4-pyrimidinediamine], for which the figures for the half-maximal inhibitory concentration (IC50) in assay [1] (setting [7]) and in assay [2] (setting [6]) were 664 nM and 13700 nM, respectively.
Take `CCC(=O)NCc1ccc(Nc2nc(Nc3ccc(C)c(S(N)(=O)=O)c3)ncc2F)cc1` [III-37, N2-(3-aminosulfonyl-4-methyl)phenyl-N4-(4-ethylcarbonylaminomethyl)phenyl-5-fluoro-2,4-pyrimidinediamine]: the figures for the IC50 in assay [1] (setting [5]) and in assay [2] (setting [6]) were 300 nM and 834 nM, respectively.
With `CCN(CC)CCNS(=O)(=O)c1ccc(Nc2ncc(F)c(Nc3ccc(Cc4ccncc4)cc3)n2)cc1` [III-67, N2-[4-(2-N,N-Diethylaminoethyl)aminosulfonylphenyl)-5-fluoro-N4-[4-(4-pyridinylmethyl)phenyl]-2,4-pyrimidinediamine], the IC50 turned out to be 347 nM in assay [1] (setting [5]) and 3050 nM in assay [2] (setting [6]).
Take `NC(=O)NCc1cccc(Nc2nc(Nc3ccc(S(N)(=O)=O)cc3)ncc2F)c1` [III-113, N4-(3-aminocarbonylaminomethyl)phenyl-N2-(4-aminosulfonyl)phenyl-5-fluoro-2,4-pyrimidinediamine]: the values for the IC50 in assay [1] (setting [7]) and in assay [2] (setting [6]) were 1030 nM and 345 nM, respectively.
For `Cc1c(Cl)cc(Nc2ncc(F)c(Nc3ccc(OC(F)(F)F)c(Cl)c3)n2)cc1S(N)(=O)=O` [VI-14, N2-(3-Aminosulfonyl-5-chloro-4-methylphenyl)-N4-(3-chloro-4-trifluoromethoxyphenyl)-5-fluoro-2,4-pyrimidinediamine], the half-inhibitory concentration (IC50) in assay [1] (Homo sapiens, Ramos, Ramos B cells stimulated with IL-4, CD23 expression by FACS) is 413 nM; in assay [2] (setting [4]), 9270 nM.
For “N4-(4-Acetylthiomethylcarbonylphenyl)-N2-(3-aminosulfonyl-4-methylphenyl)-5-fluoro-2,4-pyrimidinediamine [IX-43]”, the IC50 worked out at 523 nM in assay [1] (setting [7]) and 2800 nM with Primary human T-cells.
For “N4-(4-Acetylthiomethylcarbonylphenyl)-N2-(3-aminosulfonylphenyl)-5-fluoro-2,4-pyrimidinediamine [IX-42]” the same measures were 292 nM and 2170 nM.
In the case of “N4-(4-Acetylthiomethylcarbonylphenyl)-N2-(4-aminosulfonylphenyl)-5-fluoro-2,4-pyrimidinediamine [IX-41]”, the values for the IC50 (in assay [1] (setting [7]); with Primary human T-cells) were 133 nM and 6260 nM, respectively.

A word on the IC50: it is the concentration that inhibits the measured activity by half.
